According to ChEMBL document CHEMBL5356950, “Past, present and future of xanthine oxidase inhibitors: design strategies, structural and pharmacological insights, patents and clinical trials” (RSC Med Chem, 2023):

What was measured:
[1] = biological target: T1, Xanthine dehydrogenase/oxidase (Homo sapiens, UniProt P47989); experiment: Inhibition of XO (unknown origin) relative to control
[2] = biological target: T2, Xanthine dehydrogenase/oxidase (Bos taurus, UniProt P80457); experiment: Inhibition of Bovine milk XO using xanthine as substrate at 100 uM measured after 10 mins by microplate reader analysis relative to control; settings: cattle
[3] = biological target: T2, Xanthine dehydrogenase/oxidase; experiment: Inhibition of Bovine XO using xanthine as substrate assessed as decrease in uric acid level by spectrophotometric analysis
[4] = biological target: T2, Xanthine dehydrogenase/oxidase; experiment: Inhibition of Bovine milk XO using xanthine as substrate assessed as decrease in uric acid level measured after 5 mins by spectrophotometric analysis
[5] = biological target: T2, Xanthine dehydrogenase/oxidase; experiment: Inhibition of Bovine milk XO
[6] = Toxicity in Wistar rat assessed as decrease in serum uric acid level at 1 mg/kg, po measured after 6 hrs; format: organism-based; design: scale not given: the % may be the effect or the level left; settings: in vivo
[7] = biological target: T2, Xanthine dehydrogenase/oxidase; experiment: Inhibition of Bovine milk XO measured after 30 mins
[8] = biological target: T3, Solute carrier family 22 member 12 (Homo sapiens, UniProt Q96S37); experiment: Inhibition of human URAT1
T3 sequence (Q96S37 whole entry): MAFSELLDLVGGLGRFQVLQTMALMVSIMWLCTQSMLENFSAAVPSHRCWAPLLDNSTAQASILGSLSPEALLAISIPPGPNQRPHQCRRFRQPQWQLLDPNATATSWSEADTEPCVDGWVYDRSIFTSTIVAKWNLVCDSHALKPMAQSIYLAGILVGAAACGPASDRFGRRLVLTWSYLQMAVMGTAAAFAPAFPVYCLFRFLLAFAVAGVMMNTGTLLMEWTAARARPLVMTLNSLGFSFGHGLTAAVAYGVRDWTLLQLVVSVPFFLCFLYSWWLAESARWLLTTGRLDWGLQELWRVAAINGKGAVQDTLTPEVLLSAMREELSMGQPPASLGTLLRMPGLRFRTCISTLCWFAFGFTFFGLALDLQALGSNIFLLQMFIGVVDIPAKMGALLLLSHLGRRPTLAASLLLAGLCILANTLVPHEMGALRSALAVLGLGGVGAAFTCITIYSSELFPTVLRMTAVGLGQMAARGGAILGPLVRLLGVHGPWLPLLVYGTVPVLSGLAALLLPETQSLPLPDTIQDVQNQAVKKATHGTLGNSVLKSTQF

[9] = biological target: T2, Xanthine dehydrogenase/oxidase; experiment: Inhibition of Bovine milk XO using xanthine as substrate measured after 10 mins by spectrophotometric analysis
[10] = biological target: T2, Xanthine dehydrogenase/oxidase; experiment: Inhibition of Bovine milk XO using xanthine as substrate measured after 10 mins by spectrophotometric analysis relative to control; settings: cattle
[11] = biological target: T2, Xanthine dehydrogenase/oxidase; experiment: Inhibition of Bovine XO using xanthine as substrate assessed as decrease in uric acid level measured after 10 mins by spectrophotometric analysis
[12] = biological target: T3, Solute carrier family 22 member 12; experiment: Inhibition of URAT1 (unknown origin) assessed as decrease in uric acid level measured after 15 mins
[13] = biological target: T3, Solute carrier family 22 member 12; experiment: Inhibition of URAT1 (unknown origin)
[14] = biological target: T1, Xanthine dehydrogenase/oxidase; experiment: Inhibition of XO (unknown origin) using xanthine as substrate pre incubated for 5 mins followed by substrate addition measured after 1 mins by spectrophotometric analysis
[15] = biological target: T2, Xanthine dehydrogenase/oxidase; experiment: Inhibition of Bovine milk XO using xanthine as substrate assessed as decrease in uric acid level pre incubated for 15 mins followed by substrate addition measured after 30 mins by spectrophotometric analysis
[16] = biological target: T1, Xanthine dehydrogenase/oxidase; experiment: Inhibition of XO (unknown origin) using xanthine as substrate pre incubated for 15 mins followed by substrate addition measured after 30 mins by UV-VIS spectrophotometer analysis
[17] = biological target: T1, Xanthine dehydrogenase/oxidase; experiment: Inhibition of XO (unknown origin) using xanthine as substrate measured after 10 mins
[18] = biological target: T1, Xanthine dehydrogenase/oxidase; experiment: Inhibition of XO (unknown origin) using xanthine as substrate pre incubated for 10 mins followed by substrate addition measured after 15 mins
[19] = biological target: T2, Xanthine dehydrogenase/oxidase; experiment: Inhibition of Bovine milk XO using xanthine as substrate pre incubated for 5 mins followed by substrate addition measured after 30 mins by spectrophotometric analysis
[20] = biological target: T2, Xanthine dehydrogenase/oxidase; experiment: Inhibition of Bovine milk XO using xanthine as substrate assessed as decrease in uric acid level measured after 15 mins by spectrophotometric analysis
[21] = Toxicity in rat assessed as hypouricemic activity at 1 mg/kg; format: organism-based; settings: in vivo
[22] = Toxicity in rat assessed as hypouricemic activity at 3 mg/kg measured after 24 hrs; format: organism-based; settings: in vivo
[23] = biological target: T1, Xanthine dehydrogenase/oxidase; experiment: Inhibition of XO (unknown origin) using xanthine as substrate measured after 2 to 3 mins by UV-spectrophotometric analysis
[24] = biological target: T2, Xanthine dehydrogenase/oxidase; experiment: Inhibition of Bovine XO using xanthine as substrate assessed as decrease in uric acid level preincubated for 15 mins followed by substrate addition measured after 2 mins by spectrophotometric analysis
[25] = biological target: T4, Xanthine dehydrogenase/oxidase (Mus musculus, UniProt Q00519); experiment: Inhibition of mouse serum XO assessed as decrease in uric acid level measured after 6 hrs relative to control
[26] = biological target: T4, Xanthine dehydrogenase/oxidase; experiment: Inhibition of mouse serum XO assessed as decrease in uric acid level measured after 2 hrs relative to control
[27] = biological target: T1, Xanthine dehydrogenase/oxidase; experiment: Inhibition of XO (unknown origin) using xanthine as substrate assessed as decrease in uric acid level measured after 3 mins by spectrophotometric analysis

T2 sequence (P80457 whole entry): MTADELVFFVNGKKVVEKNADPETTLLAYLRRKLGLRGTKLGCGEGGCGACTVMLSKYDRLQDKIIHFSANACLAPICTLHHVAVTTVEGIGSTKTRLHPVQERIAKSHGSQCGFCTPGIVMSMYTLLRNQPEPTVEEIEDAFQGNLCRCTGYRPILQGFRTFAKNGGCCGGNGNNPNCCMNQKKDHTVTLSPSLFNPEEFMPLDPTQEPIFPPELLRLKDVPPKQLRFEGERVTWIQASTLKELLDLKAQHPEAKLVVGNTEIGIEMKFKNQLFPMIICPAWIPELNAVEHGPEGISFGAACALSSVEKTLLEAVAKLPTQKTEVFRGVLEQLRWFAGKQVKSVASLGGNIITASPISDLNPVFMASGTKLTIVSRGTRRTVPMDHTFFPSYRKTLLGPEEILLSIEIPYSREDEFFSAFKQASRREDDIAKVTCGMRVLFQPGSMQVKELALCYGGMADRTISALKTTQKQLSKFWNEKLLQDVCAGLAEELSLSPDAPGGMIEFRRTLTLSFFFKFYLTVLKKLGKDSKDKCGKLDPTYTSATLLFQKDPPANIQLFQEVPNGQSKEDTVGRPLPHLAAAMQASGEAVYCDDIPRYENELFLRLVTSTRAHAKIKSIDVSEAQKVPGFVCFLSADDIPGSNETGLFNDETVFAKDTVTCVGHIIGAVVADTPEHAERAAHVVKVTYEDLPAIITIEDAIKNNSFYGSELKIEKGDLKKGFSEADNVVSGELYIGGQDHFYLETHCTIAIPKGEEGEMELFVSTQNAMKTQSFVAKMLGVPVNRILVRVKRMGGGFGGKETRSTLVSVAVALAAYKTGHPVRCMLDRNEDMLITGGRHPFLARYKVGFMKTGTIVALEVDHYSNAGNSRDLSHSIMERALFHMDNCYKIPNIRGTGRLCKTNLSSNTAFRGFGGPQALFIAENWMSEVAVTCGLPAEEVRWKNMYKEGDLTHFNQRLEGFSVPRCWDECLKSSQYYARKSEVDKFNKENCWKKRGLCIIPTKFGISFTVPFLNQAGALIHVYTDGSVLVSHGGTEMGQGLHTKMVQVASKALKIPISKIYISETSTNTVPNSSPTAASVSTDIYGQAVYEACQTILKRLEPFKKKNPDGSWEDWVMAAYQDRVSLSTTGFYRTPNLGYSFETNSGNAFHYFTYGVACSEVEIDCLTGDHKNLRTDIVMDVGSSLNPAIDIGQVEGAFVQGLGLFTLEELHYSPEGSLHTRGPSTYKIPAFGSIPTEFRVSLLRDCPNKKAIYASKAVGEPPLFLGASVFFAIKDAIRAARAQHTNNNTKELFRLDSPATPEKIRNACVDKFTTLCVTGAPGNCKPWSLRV
T1 sequence (P47989 whole entry): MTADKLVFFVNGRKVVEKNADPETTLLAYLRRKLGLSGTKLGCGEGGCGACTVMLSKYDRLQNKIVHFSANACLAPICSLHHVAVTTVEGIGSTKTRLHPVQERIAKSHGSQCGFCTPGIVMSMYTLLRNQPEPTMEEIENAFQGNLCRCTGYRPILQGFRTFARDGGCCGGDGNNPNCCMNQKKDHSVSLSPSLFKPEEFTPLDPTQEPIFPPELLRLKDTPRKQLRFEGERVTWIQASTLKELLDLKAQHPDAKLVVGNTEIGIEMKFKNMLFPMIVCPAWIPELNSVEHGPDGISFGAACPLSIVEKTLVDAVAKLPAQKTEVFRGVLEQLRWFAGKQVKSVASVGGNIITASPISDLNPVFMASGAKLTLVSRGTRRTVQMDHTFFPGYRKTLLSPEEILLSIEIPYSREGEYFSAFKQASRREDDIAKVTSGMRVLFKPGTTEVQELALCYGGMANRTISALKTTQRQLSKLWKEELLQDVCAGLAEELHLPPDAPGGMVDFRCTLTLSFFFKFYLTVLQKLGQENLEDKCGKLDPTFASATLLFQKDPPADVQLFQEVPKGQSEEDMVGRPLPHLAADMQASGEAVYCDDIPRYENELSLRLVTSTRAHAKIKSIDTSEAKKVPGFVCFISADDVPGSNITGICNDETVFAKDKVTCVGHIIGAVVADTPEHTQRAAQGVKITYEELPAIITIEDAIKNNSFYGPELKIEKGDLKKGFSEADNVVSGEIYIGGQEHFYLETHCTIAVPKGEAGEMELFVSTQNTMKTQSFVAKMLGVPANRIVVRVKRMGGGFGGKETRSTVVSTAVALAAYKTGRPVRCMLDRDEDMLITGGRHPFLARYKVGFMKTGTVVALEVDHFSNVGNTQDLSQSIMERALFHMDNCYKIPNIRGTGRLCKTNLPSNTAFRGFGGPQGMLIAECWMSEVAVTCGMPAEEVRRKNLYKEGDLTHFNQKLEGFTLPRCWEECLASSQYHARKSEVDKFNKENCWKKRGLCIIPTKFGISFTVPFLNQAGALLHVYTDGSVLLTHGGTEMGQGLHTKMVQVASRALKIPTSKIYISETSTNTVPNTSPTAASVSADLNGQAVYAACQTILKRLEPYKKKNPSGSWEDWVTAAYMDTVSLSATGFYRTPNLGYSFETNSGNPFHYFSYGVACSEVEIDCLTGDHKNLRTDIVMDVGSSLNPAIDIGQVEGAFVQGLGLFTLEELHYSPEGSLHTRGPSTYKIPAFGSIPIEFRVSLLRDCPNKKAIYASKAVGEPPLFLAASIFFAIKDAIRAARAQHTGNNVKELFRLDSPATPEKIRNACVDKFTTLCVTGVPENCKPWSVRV
T4 sequence (Q00519 whole entry): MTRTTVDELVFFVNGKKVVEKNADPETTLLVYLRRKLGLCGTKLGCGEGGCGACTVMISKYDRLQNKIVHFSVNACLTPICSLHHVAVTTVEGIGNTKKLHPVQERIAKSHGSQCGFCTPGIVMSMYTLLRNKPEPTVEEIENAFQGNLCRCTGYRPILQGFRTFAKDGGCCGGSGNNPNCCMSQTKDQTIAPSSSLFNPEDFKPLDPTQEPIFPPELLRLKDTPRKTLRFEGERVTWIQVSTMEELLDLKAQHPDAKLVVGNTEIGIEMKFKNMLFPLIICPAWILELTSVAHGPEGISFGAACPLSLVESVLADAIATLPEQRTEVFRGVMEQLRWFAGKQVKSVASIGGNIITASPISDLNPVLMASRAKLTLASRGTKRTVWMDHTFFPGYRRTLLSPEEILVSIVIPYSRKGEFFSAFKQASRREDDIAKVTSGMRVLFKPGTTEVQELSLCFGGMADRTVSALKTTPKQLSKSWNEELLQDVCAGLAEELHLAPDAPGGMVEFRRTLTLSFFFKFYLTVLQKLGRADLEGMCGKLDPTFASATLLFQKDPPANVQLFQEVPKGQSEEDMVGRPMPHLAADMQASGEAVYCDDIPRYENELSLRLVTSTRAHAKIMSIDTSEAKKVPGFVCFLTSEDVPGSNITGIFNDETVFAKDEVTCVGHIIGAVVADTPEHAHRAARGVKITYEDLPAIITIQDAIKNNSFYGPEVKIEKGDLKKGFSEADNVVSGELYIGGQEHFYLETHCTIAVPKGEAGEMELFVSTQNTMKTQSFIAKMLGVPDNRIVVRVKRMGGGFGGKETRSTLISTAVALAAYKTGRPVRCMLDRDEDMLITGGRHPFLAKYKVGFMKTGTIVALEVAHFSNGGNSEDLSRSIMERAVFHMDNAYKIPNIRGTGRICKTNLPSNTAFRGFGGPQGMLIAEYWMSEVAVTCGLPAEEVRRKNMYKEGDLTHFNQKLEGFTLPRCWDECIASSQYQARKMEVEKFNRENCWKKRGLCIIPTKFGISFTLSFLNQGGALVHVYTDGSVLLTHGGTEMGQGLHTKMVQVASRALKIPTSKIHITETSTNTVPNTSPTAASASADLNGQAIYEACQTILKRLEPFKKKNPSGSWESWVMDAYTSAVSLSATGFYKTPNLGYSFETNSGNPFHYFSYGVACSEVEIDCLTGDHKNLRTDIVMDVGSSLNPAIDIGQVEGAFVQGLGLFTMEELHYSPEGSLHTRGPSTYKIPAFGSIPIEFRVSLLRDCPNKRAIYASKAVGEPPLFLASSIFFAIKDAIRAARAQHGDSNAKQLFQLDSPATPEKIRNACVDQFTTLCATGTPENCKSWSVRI

Clc1cc2nc(-c3ccncc3)[nH]c2cc1Cl
inhibition (INH) [1]: 56%

N#Cc1cn(-c2ccc(C(=O)O)c(O)c2)cc1-c1cccs1
inhibition at 100 µM [2]: > 90%

CCCCc1cn(-c2ccc(C(=O)O)c(O)c2)cc1C#N
inhibition at 100 µM [2]: > 90%

O=C(O)c1ccc2c(c1)C(=O)N(c1ccccc1)C2=O
IC50 [3]: 7.15 µM

O=c1oc2cc(O)cc(O)c2cc1-c1cccc(O)c1
IC50 [4]: 2.13 µM

OCc1ccc(O)c(O)c1
IC50 [5]: 3 µM

Cc1cc(-c2nc(-c3ccc(OCC(C)C)c([N+](=O)[O-])c3)n[nH]2)ccn1
Activity [6]: 66.5%

Cc1cc(-c2n[nH]c(-c3ccc(OCC(C)C)c(C#N)c3)n2)ccn1
Activity [6]: 67.5%

Cc1nc(-c2cc(I)c3c(c2)CCC(C)(C)O3)sc1C(=O)O
IC50 [7]: 0.00187 µM

CCC1(C)Cc2cc(-c3nc(C)c(C(=O)O)s3)cc(C#N)c2O1 (stereo unspecified)
IC50 [7]: 0.00135 µM

COC(=O)C(Sc1nnc(Br)n1-c1ccc(Br)c2ccccc12)C(=O)OC
IC50 [8]: 0.0197 µM

Cc1ccc2c(-c3ccc(C(=O)O)c(O)c3)cc(C#N)n2n1
IC50 [9]: 0.003 µM
inhibition (INH) [10]: 60%

COc1cc(OC)c(C(=O)/C=C/c2ccccc2F)c(O)c1C(=O)/C=C/c1ccccc1F
IC50 [11]: 0.728 µM

N#Cc1ccc(NS(=O)(=O)c2ccccc2OC(F)(F)F)cc1Cl
IC50 [12]: 0.006 µM

O=C(Nc1ccc(-c2nnn[nH]2)cc1)c1c(O)[nH]c(=S)[nH]c1=O
IC50 [13]: 0.39 µM

COc1ccc(-c2cc3cc([N+](=O)[O-])ccc3oc2=O)cc1
IC50 [14]: 8.4 µM

O=[N+]([O-])c1ccc(CSc2nnc(-c3cc(-c4ccccc4)nn3Cc3ccccc3)o2)cc1
IC50 [15]: 72.4 µM

O=Cc1ccc(C2Nc3ccccc3-c3cc(-c4ccccc4)nn32)c([N+](=O)[O-])c1 (stereo unspecified)
IC50 [16]: 11 µM

Cc1nc(-c2cc(C#N)c3c(c2)CCC(C)(C)O3)[se]c1C(=O)O
IC50 [7]: 0.00236 µM

Cc1nc(-c2cc(C#N)c3c(c2)CC2(CCCCC2)O3)sc1C(=O)O
IC50 [7]: 0.0014 µM

Cc1nc(-c2cc(C#N)c3c(c2)CCC(C)(C)O3)sc1C(=O)O
IC50 [7]: 0.00265 µM

Nn1c(S)nnc1-c1cc(-c2ccccc2)nn1Cc1ccccc1
IC50 [15]: 65.4 µM

Cc1nc(-c2cc(C#N)c3c(c2)CC2(CCCC2)O3)[se]c1C(=O)O
IC50 [7]: 0.00158 µM

COCOc1cccc(-c2c[nH]cc2C#N)c1
inhibition at 100 µM [2]: > 90%

N#Cc1c(Cl)cc(NS(=O)(=O)c2ccccc2OC(F)(F)F)cc1Cl
IC50 [12]: 0.004 µM

O=C1CC(c2ccccc2)Oc2c3c(c(CO)c(O)c21)OCN(c1ccc(F)cc1)C3 (stereo unspecified)
inhibition (INH) [1]: 84.27%

COC(=O)[C@H]1C[C@@H](n2cc(-c3ccccc3)nn2)[C@H](O)C[C@H]1C(=O)OC
IC50 [17]: 0.586 µM

O=C(NC(Cc1ccccc1)C(=O)O)c1ccc2c(c1)C(=O)c1ccccc1C2=O (stereo unspecified)
IC50 [11]: 2.9 µM

CN1C(=O)C(=Cc2ccc(Cl)cc2Cl)C(=O)N(C)C1=O
IC50 [18]: 21000 µM

Cc1nn(-c2ccc(OCCC(C)C)c(C#N)c2)nc1C(=O)O
IC50 [19]: 0.084 µM

O=[N+]([O-])c1cc(C2=NC3=CN=CN(O)C3S2)ccc1Oc1ccccc1F (stereo unspecified)
IC50 [9]: 0.0054 µM

CCOC(=O)c1sc(-c2cc(I)c3c(c2)CCC(C)(C)O3)nc1C
IC50 [7]: 0.0013 µM

O=C(/C=C/c1cc(O)cc(O)c1)c1ccc(O)cc1O
IC50 [20]: 22.5 µM

Cc1nc(-c2ccc(OC(C)C)c(-n3cnnn3)c2)sc1C(=O)O
Activity [21]: 50%

Cc1nc(-c2ccc(OCC(C)(C)C)c(-n3cnnn3)c2)sc1C(=O)O
Activity [22]: 40%
Activity [21]: 50%

Cc1nc(-c2cc(C#N)c3c(c2)CC(C)O3)sc1C(=O)O (stereo unspecified)
IC50 [7]: 0.00184 µM

COc1ccc([C@@H]2C/C(=N\c3ccc([N+](=O)[O-])cc3Cl)C3C(O)=CC(O[C@H]4C[C@@H](OC5O[C@H](C)[C@@H](O)[C@H](O)C5O)[C@H](O)[C@@H](O)[C@@H]4O)=CC3O2)cc1O (stereo partly specified)
IC50 [23]: 0.263 µM

Cc1nc(-c2ccc(OCC(C)C)c(-n3cnnn3)c2)sc1C(=O)O
Activity [22]: 40%
Activity [21]: 50%

O=c1[nH]c(-c2ccc(OCC3CCCCC3)c(-n3cnnn3)c2)no1
IC50 [24]: 0.121 µM

Cc1cc(C)c(C[n+]2cn(CCO)c3ccccc32)c(C)c1
IC50 [17]: 1.25 µM

Oc1ncnc2[nH]ncc12 [ALLOPURINOL]
inhibition (INH) [25]: 14%
inhibition (INH) [26]: 33%

COc1ccc2c(c1)c(CC(=O)O)c(C)n2C(=O)c1ccc(Cl)cc1 [INDOMETHACIN]
IC50 [27]: 86 µM
